{
  "source": "patent EP0442757A2",
  "about": "“Therapeutic nucleosides” (THE WELLCOME FOUNDATION LIMITED, priority 1990, dated 1991)",
  "type_in_all_cases": "cell-based",
  "key": {"[1]": {"assay": "Cell toxicity, cell growth inhibition assay (MTT uptake)", "conditions": "CCID-50: 50% inhibition of cell viability at 5 days; uninfected MT4 cells or vero cells (not stated which); read-out: TOX", "procedure": "Cell toxicity was assessed in a cell growth inhibition assay on uninfected MT4 cells or on vero cells in a 96-well microtiter dish. Identical cell numbers of uninfected cells were exposed to different dilutions of drug and cell viability determined daily on replicate cultures using uptake of MTT. The concentration required for a 50% inhibition of cell viability at 5 days is termed CCID-50."}, "[2]": {"system": "HIV-1", "assay": "PBL assay (P24 capsid antigen ELISA in human peripheral blood lymphocytes)", "conditions": "human PBL's stimulated with IL2 and PHA, P24 ELISA after 4 days incubation at 37°C, several values per cell", "procedure": "HIV assays were carried out in human peripheral blood lymphocytes (PBL's) prepared by fractionation of fresh human […] on Ficoll gradients as described by Hartmann H. et al. Aids Research and Human Retroviruses, 1988, 4 457-466. The isolated PBL's were stimulated with growth factors IL2 and PHA for 3 days before infection with HIV. Growth of virus was monitored, after 4 days incubation at 37°C, by quantitative ELISA assays of the capsid antigen, P24. A range of concentrations of compound of known molarity was incorporated into the medium. Yield of P24 at each concentration are expressed as a percentage of the control and a dose response curve is drawn. From this curve the 50% inhibitory concentration (IC50) is estimated."}, "[3]": {"system": "HIV-1", "assay": "Antiviral MT4 assay (reversal of HIV cytopathic effect, MTT uptake)", "conditions": "MTT uptake at fifth day post infection, several values per cell, read-out: IC50 vs HIV-1 (μM) MT-4 (converted)", "procedure": "Antiviral activity against the Human Immunodeficiency Virus (HIV) was determined according to the method of Pauwels et al, J.Virol.Methods, 1988 20 309-321 by measuring the ability of the compound to reverse the cytopathic effect of HIV infection. This was determined by a quantitative assessment of cell growth monitored at the fifth day post infection by a tetrazolium dye (MTT) uptake test. Subconfluent (20-40,000 cells/well) human T lymphocyte cell line MT4 cells infected with HIV were grown in 96-well microtiter dishes and exposed to different dilutions of drug. After 5 days, the dye intake test was performed on drug treated cultures and on HIV infected and mock infected MT4 cells. Under the conditions of the test, HIV infection caused extensive cytopathic effect and prevented cell growth by >80%. The antiviral effect of a drug is reported as an IC-50, i.e. as the inhibitory concentration that would protect 50% of the cells from cell killing, measured as 50% of that cell growth determined for uninfected MT4 cell controls."}, "[4]": {"system": "HIV-1", "assay": "HeLa-CD4+ cell assay (plaque reduction in HT4-6C cell monolayers)", "conditions": "Human immunodeficiency virus 1, plaque reduction after 2-3 days, method calls the value ID50", "procedure": "Susceptibility of HIV to inhibitors was determined by infection of HT4-6C cell monolayers as described by Larder, B.A., Chesebro, B. & Richman, D.D. Antimicrob. Agents Chemother. 1990 34, 436-441. Briefly cells were seeded in 24-well multiwells at 5x10⁴ cells per well and incubated overnight at 37°C in growth medium (DMEM10). Monolayers were infected with 100-200pfu of cell-free virus in 0.2ml of DMEM containing 5% fetal bovine serum plus antibiotics (DMEM5) and incubated for 1 hour at 37°C to allow virus adsorption. Following this time, 0.8ml of DMEM5 (with or without inhibitor) was added to each well and cultures were incubated at 37°C for 2-3 days. Monolayers were fixed with 10% formaldehyde solution in PBS and stained with 0.25% crystal violet in order to visualize virus plaques. Individual foci of multinucleated gian cells (plaques) were apparent using this staining procedure. ID₅₀ values were derived from plots of percent plaque reduction versus inhibitor concentration."}, "[5]": {"conditions": "Human immunodeficiency virus 1, Lymphocyte, 96 h"}},
  "data": [
    {"smiles": "COCc1cn([C@H]2C[C@H](F)[C@@H](CO)O2)c(=O)[nH]c1=O", "note": "[2′,3′-Dideoxy-3′-fluoro-5-methoxymethyluridine]", "values": [
      {"measurement": "CC50 at 120 h", "setting": "[1]", "value": "> 500", "unit": "µM"},
      {"measurement": "IC50", "setting": "[2]; [5]", "value": 1.89, "unit": "µM"},
      {"measurement": "IC50", "setting": "[3]; Human immunodeficiency virus 1, MT4, MT4 cells infected with HIV", "value": 8.4, "unit": "µM"},
      {"measurement": "IC50", "setting": "[3]; MT4 cells infected with HIV", "value": 6.4, "unit": "µM"},
      {"measurement": "IC50", "setting": "[4]", "value": 11.9, "unit": "µM"}
    ]},
    {"smiles": "CSCc1cn([C@H]2C[C@H](F)[C@@H](CO)O2)c(=O)[nH]c1=O", "note": "[2′,3′-Dideoxy-3′-fluoro-5-methylthiomethyluridine]", "values": [
      {"measurement": "CC50 at 120 h", "setting": "[1]", "value": "> 200", "unit": "µM"},
      {"measurement": "IC50", "setting": "[4]", "value": 4.2, "unit": "µM"}
    ]},
    {"smiles": "CCOCc1cn([C@H]2C[C@H](F)[C@@H](CO)O2)c(=O)[nH]c1=O", "note": "[2′,3′-Dideoxy-5-ethoxymethyl-3′-fluorouridine]", "values": [
      {"measurement": "CC50 at 120 h", "setting": "[1]", "value": "> 200", "unit": "µM"},
      {"measurement": "IC50", "setting": "[2]; [5]", "value": 1.52, "unit": "µM"},
      {"measurement": "IC50", "setting": "[2]", "value": 1.63, "unit": "µM"},
      {"measurement": "IC50", "setting": "[4]", "value": 6.3, "unit": "µM"}
    ]}
  ]
}
